Laboratory results taken from patent US8145437B2, “System and method to obtain oligo-peptides with specific high affinity to query proteins” (priority 2005, dated 2012).

What was measured:
GAL4 peptide = experiment: Binding of fluorescent labeled GAL4 peptide to protein extracts of monoclonal clones; conditions: other proteins tested even in much higher concentrations
[1] = molecular target: T1, dimerisation domain of 1HBW REGULATORY PROTEIN GAL4 (Saccharomyces cerevisiae, UniProt P04386); experiment: BacterioMatch two-hybrid assay with Target Oligo Pool in pTRG vector; format: cell-based; conditions: ampicillin-resistant reporter
T1 construct: the dimerisation domain of 1HBW REGULATORY PROTEIN GAL4 inserted into pBT (as it is provided and described by Stratagene); host or cells: E. coli BacterioMatch two-hybrid reporter strain (derived from XL1-Blue MRF')
T1 sequence (P04386 50-106 limits assumed): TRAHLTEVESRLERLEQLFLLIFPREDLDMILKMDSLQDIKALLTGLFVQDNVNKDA
Description: The BacterioMatch™ two-hybrid system* (Stratagene, 11011 N. Torrey Pines Road La Jolla, Calif. 92037) was used to Quickly Detect Protein-Protein Interactions designed by the recent Method. It is a simple alternative or complement to yeast two-hybrid systems for in vivo detection of protein-protein interactions. Because the two-hybrid assay is performed in bacteria, results are obtained more easily and quickly than in yeast. The system is based on transcriptional activation of a primary ampicillin-resistant reporter and a secondary β-galactosidase reporter for validation. The BacterioMatch two-hybrid system is based on a methodology developed by Dove, Joung, and Hochschild of Harvard Medical School.
The BacterioMatch two-hybrid system is based on transcriptional activation (FIG. 4). A protein of interest—the bait—is fused to the full-length bacteriophage repressor protein (.lamda.cI). The corresponding target protein is fused to the amino-terminal domain of the α-subunit of RNA polymerase (RNAPα). The bait is tethered to the […] sequence upstream of the reporter promoter through the DNA-binding domain of .lamda.cI. If the bait and target interact, they recruit and stabilize the binding of RNA polymerase close to the promoter and activate the transcription of the ampicillin-resistant reporter gene in the BacterioMatch two-hybrid reporter strain. […]

Unlabelled GAL4: unlabelled GAL4 peptide, the query, used as competitor of labeled GAL4 (ESRLERLEQLFLLIF)
competition with binding of labeled GAL4 to the proteins from positive clones (GAL4 peptide): inhibited

growth hormone
competition with binding of labeled GAL4 to the proteins from positive clones (GAL4 peptide): ineffective competitors

B1: prolactin (protein, UniProt P01236 29-227, looked up)
Prolactin: LPICPGGAARCQVTLRDLFDRAVVLSHYIHNLSSEMFSEFDKRYTHGRGFITKAINSCHTSSLATPEDKEQAQQMNQKDFLSLIVSILRSWNEPLYHLVTEVRGMQEAPEAILSKAVEIEEQTKRLLEGMELIVSQVHPETKENEIYPVWSGLPSLQMADEESRLSAYYNLLHCLRRDSHKIDNYLKLLKCRIIHNNNC
competition with binding of labeled GAL4 to the proteins from positive clones (GAL4 peptide): ineffective competitors

B2: TARGET TEMPLATE to … (GAL4 17-31AA): Target oligo template pool, 1st and 3rd codon letters reverse-complementary to Gal4 coding sequence 17-31, 2nd letter undefined (nucleic acid)
DNA: GGATCCATGANTCNTGNCANGGNCTNCTNGANGANAANTCNGTNGANATNGCNGATTCGGCCGC
modifications: listed as DNA, chemistry not fully specified; the letters are possibly those of the target site
positive bacterial clones growing on double selective medium [1]: numerous positive bacterial clones
